Assay results reported in US20140135310A1, “SULPHONAMIDE DERIVATIVES OF ALICYCLIC AMINES FOR THE TREATMENT OF CENTRAL NERVOUS SYSTEM DISEASES” (Adamed Sp. z o.o., priority 2011, published 2014).
pIC50: −log10 of the molar value. Where two headings read alike, the source gives them in different places.

How the values were obtained:
[1] = biological target: T1, 5-HT reuptake (rat brain synaptosomes) (Rattus norvegicus, UniProt P31652); assay: 5-HT reuptake, [3H]5-HT incorporation into rat brain synaptosomes; type: biochemical; conditions: 15 min/37° C., read-out: SERT IC50
T1 construct: measuring [^3H]5-HT incorporation into rat brain synaptosomes; from tissue; host or cells: rat brain synaptosomes
T1 sequence (P31652 whole entry): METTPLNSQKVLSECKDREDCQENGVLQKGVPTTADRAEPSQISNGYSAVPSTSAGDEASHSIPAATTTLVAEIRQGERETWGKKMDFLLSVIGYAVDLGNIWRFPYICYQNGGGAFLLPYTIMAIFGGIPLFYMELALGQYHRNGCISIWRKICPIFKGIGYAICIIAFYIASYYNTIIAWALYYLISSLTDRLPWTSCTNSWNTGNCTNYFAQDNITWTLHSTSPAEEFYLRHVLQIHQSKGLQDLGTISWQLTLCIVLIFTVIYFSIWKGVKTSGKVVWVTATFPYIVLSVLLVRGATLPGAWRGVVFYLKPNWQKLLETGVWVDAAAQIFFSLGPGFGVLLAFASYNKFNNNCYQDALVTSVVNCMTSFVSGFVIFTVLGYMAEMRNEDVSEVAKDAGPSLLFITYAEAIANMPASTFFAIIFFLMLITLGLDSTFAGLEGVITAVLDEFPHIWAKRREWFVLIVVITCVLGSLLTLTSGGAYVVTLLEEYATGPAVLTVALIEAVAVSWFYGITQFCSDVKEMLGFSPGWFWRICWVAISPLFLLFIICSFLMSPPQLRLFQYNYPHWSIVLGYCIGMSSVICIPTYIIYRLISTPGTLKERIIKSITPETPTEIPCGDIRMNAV
Description: 5-HT reuptake was tested according to Perovic, S. and Muller, W.E.G. (1995) Arzneim-Forsch. Drug Res., 45: 1145-1148 by measuring [^3H]5-HT incorporation into rat brain synaptosomes. Assay conditions are as follows:
Tracer: [^3H]5-HT (0.2 μCi/ml)
Incubation: 15 min/37° C.

[2] = biological target: D2 dopaminergic receptors (Homo sapiens, UniProt P14416); assay: Cellular functional assay, D2 dopaminergic receptors; type: cell-based; conditions: D2S (h), HEK-293 cells; for D2 ag [%]: agonism, percent of control specific agonist response (3 μM dopamine for control); for D2 antag [%]: antagonism, stimulus dopamine (30 nM)
Sequence of D2 dopaminergic receptors (P14416 whole entry): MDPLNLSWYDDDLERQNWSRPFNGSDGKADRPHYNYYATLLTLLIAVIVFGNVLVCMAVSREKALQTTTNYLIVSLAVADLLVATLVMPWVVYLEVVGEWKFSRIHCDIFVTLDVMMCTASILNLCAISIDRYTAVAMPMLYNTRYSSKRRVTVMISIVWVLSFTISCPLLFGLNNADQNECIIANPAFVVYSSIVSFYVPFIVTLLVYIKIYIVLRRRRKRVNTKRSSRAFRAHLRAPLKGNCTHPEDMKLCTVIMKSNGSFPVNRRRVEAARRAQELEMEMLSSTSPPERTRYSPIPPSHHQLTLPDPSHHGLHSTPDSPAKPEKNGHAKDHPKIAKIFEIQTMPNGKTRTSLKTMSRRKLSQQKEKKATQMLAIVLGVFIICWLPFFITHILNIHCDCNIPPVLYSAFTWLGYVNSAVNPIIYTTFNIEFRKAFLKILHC
How it was run: (§1)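 Responses expressed as percent of control specific agonist response; EC50 or IC50 from Hill-equation nonlinear fits of mean replicate concentration-response curves. For antagonists, Kb derived by modified Cheng-Prusoff using reference agonist concentration and its EC50.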

[3] = biological target: 5-HT2A serotoninergic receptors (Homo sapiens, UniProt P28223); assay: Cellular functional assay, 5-HT2A serotoninergic receptors; type: cell-based
Sequence of 5-HT2A serotoninergic receptors (P28223 whole entry): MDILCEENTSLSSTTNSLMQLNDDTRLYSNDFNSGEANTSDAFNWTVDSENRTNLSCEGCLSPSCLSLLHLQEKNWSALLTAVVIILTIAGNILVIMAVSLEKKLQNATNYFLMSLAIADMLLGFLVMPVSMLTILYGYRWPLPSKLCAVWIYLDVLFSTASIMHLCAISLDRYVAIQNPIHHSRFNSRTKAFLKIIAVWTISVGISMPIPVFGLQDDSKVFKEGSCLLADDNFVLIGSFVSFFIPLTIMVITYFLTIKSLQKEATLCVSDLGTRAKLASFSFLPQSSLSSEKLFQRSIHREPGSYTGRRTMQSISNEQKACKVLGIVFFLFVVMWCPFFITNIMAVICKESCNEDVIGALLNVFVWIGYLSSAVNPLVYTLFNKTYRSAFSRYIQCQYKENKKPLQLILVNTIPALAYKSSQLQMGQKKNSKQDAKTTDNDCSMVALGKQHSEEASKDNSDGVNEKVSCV
How it was run: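 Response expressed as percent of control specific agonist response; EC50 or IC50 from Hill-equation non-linear regression on mean replicate values. For antagonists, apparent Kb derived by modified Cheng-Prusoff using reference agonist concentration and its EC50.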

[4] = biological target: 5-HT6 serotoninergic receptors (Homo sapiens, UniProt P50406); assay: Cellular functional assay, 5-HT6 serotoninergic receptors; type: cell-based; conditions: agonist mode; percent of control specific agonist response
Sequence of 5-HT6 serotoninergic receptors (P50406 whole entry): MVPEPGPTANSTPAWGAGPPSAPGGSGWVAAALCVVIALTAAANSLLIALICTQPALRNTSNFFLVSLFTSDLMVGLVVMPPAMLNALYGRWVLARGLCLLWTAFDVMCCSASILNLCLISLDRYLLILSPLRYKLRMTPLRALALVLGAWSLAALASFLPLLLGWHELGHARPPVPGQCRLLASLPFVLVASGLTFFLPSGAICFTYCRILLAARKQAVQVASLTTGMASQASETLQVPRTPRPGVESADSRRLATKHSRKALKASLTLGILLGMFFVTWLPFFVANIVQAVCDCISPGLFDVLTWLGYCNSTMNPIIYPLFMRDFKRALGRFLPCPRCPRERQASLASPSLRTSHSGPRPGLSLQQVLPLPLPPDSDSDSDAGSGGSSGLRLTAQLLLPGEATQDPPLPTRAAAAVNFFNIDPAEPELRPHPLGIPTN
How it was run: as §1

[5] = biological target: 5-HT7 serotoninergic receptors (Homo sapiens, UniProt P34969); assay: Cellular functional assay, 5-HT7 serotoninergic receptors; type: cell-based; conditions: agonist mode; percent of control specific agonist response
Sequence of 5-HT7 serotoninergic receptors (P34969 whole entry): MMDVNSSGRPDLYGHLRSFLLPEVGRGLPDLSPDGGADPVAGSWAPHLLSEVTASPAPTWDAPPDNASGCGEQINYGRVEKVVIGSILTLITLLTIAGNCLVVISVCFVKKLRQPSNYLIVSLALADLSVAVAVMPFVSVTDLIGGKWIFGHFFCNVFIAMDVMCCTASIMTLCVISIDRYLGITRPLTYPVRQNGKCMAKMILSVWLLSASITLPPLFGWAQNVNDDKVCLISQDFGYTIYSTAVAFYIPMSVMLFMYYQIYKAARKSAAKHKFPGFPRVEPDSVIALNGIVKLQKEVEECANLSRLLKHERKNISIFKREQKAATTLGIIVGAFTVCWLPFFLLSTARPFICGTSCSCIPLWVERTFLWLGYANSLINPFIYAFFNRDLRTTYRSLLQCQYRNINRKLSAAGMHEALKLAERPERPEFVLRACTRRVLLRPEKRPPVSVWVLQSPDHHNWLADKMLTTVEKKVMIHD
How it was run: as §1

[6] = biological target: D3 dopaminergic receptors (Homo sapiens, UniProt P35462); assay: Cellular functional assay, D3 dopaminergic receptors; type: cell-based; conditions: D3 (h), CHO cells; for D3 ag [%]: agonism, percent of control specific agonist response (0.3 μM dopamine for control); for D3 antag [%]: antagonism, stimulus dopamine (10 nM)
Sequence of D3 dopaminergic receptors (P35462 whole entry): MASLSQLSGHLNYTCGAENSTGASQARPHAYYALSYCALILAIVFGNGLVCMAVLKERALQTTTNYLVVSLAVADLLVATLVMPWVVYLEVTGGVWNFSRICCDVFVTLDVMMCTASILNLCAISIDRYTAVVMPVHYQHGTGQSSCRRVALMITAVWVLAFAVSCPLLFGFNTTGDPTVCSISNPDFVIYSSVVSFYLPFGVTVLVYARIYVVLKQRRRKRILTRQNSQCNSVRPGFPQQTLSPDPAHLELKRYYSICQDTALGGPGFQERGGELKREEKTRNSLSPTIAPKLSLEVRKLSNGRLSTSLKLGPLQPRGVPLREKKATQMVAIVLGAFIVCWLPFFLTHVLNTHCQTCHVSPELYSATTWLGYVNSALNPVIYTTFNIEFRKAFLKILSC
How it was run: as §1

[7] = biological target: T2, 5-HT1A serotoninergic receptors (Homo sapiens, UniProt P08908); assay: Cellular functional assay, 5-HT1A serotoninergic receptors; type: cell-based; conditions: agonist mode; percent of control specific agonist response
T2 sequence (P08908 1-422): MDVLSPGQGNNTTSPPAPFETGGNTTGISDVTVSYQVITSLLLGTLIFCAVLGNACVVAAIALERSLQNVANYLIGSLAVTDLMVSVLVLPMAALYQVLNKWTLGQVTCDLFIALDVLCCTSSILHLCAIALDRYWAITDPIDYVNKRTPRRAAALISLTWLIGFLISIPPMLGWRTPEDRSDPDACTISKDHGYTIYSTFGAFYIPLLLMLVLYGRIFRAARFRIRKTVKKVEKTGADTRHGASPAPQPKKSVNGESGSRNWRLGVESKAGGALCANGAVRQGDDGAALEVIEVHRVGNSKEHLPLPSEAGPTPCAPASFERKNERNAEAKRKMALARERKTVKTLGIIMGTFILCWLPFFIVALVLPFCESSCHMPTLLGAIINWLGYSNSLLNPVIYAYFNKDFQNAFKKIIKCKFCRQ
Description: (§2) The results are expressed as a percent of control specific agonist response ((measured specific response/control specific agonist response)×100) obtained in the presence of the test compounds.
(§3) The EC50 values (concentration producing a half-maximal specific response) and IC50 values (concentration causing a half-maximal inhibition of the control specific agonist response) were determined by non-linear regression analysis of the concentration-response curves generated with mean replicate values using Hill equation curve fitting (Y=D+[(A−D)/(1+(C/C50)nH)], where Y=specific response, D=minimum specific response, A=maximum specific response, C=compound concentration, and C50=EC50 or IC50, and nH=slope factor). This analysis was performed using a software developed at Cerep (Hill software) and validated by comparison with data generated by the commercial software SigmaPlot® 4.0 for Windows® (© 1997 by SPSS Inc.).
(§4) For the antagonists, the apparent dissociation constants (Kb) were calculated using the modified Cheng Prusoff equation (Kb=IC50/(1+(A/EC50A)), where A=concentration of reference agonist in the assay, and EC50A=EC50 value of the reference agonist).

[8] = biological target: T3, 5-HT2C serotoninergic receptors (Homo sapiens, UniProt P28335); assay: Cellular functional assay, 5-HT2C serotoninergic receptors; type: cell-based
T3 sequence (P28335 33-458): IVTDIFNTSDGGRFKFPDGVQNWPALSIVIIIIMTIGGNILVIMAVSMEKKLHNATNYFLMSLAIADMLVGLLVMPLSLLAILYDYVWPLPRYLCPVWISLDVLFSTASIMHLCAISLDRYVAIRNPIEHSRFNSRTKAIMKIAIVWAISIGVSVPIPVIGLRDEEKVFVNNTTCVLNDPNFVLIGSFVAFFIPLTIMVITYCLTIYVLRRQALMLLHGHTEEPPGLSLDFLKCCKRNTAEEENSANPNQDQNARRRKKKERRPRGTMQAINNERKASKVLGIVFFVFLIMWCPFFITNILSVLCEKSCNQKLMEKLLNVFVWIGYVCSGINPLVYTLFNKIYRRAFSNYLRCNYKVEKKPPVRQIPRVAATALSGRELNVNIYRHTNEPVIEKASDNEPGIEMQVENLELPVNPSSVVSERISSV
Description: as §2, §3, §4

[9] = agonist mode, percent of control specific agonist response

**Q.** Cc1cccc(S(=O)(=O)NC2CCN(CCCc3c[nH]c4ccc(Cl)cc34)C2)c1 (stereo not drawn) [Compound 86, N-[1-[3-(5-chloro-1H-indol-3-yl)propyl]pyrrolidin-3-yl]-3-methyl-benzenesulphonamide] was tested. Which pIC50 [1] did it give?
**A.** The pIC50 was 7.77.

**Q.** What does the source list for O=S(=O)(NCC1CN(CCCc2noc3cc(F)ccc23)C1)c1ccc2ccccc2c1 [Compound 134, N-[[1-[3-(6-Fluoro-1,2-benzoxazol-3-yl)propyl]azetidin-3-yl]methyl]-naphthalene-2-sulphonamide]?
**A.** D2 ag [%] [2]: 6%; D2 antag [%] [2]: 47%; 5-HT2A ag [%] [3]: −3%; 5-HT6 ag [%] [4]: 4%; 5-HT7 ag [%] [5]: 1%

**Q.** Which results are given for O=S(=O)(NCC1CCN(CCOc2cccc3ccccc23)C1)c1ccc2ccccc2c1 (stereo not drawn) [Compound 124, N-[[1-[2-(1-Naphthyloxy)ethyl]pyrrolidin-3-yl]methyl]naphthalene-2-sulphonamide]?
**A.** D2 ag [%] [2]: 33%; D2 antag [%] [2]: 44%; D3 ag [%] [6]: 11%; D3 antag [%] [6]: 43%; 5-HT1A ag [%] [7]: 16%; 5-HT6 ag [%] [4]: 7%; 5-HT7 ag [%] [5]: 10%

**Q.** Which results are given for O=S(=O)(NCC1CN(CCOc2cccc3ccccc23)C1)c1ccc2ccccc2c1 [Compound 122, N-[[1-[2-(1-Naphthyloxy)ethyl]azetidin-3-yl]methyl]naphthalene-2-sulphonamide]?
**A.** D2 ag [%] [2]: 33%; D2 antag [%] [2]: 62%; D3 ag [%] [6]: 38%; D3 antag [%] [6]: 56%; 5-HT1A ag [%] [7]: 35%; 5-HT6 ag [%] [4]: 0%; 5-HT7 ag [%] [5]: 21%; 5-HT2C ag [%] [8, 9]: 78%; 5-HT2C antag [%] ([8]; antagonist mode): −10%

**Q.** Cc1c(S(=O)(=O)NCC2CN(CCCc3noc4cc(F)ccc34)C2)sc2ccc(Cl)cc12 [Compound 131, 5-Chloro-N-[[1-[3-(6-fluoro-1,2-benzoxazol-3-yl)propyl]azetidin-3-yl]-methyl]-3-methyl-benzothiophene-2-sulphonamide] was tested. Which “D2 ag [%]” value [2] did it give?
**A.** The value was 5%.

**Q.** What about the “D2 antag [%]” value [2] of the same compound?
**A.** The value was 20%.

**Q.** What about the “D3 ag [%]” value [6] of the same compound?
**A.** The value was −13%.

**Q.** What about the “D3 antag [%]” value [6] of the same compound?
**A.** Its value is 55%.

**Q.** What about the “5-HT2A ag [%]” value [3, 9] of the same compound?
**A.** Its value is −2%.

**Q.** And the “5-HT6 ag [%]” value [4]?
**A.** The value was 3%.

**Q.** And the “5-HT7 ag [%]” value [5]?
**A.** Its value is 1%.

**Q.** How did the “D2 ag [%]” value [2] turn out when Cc1c(S(=O)(=O)NCC2CN(CCCc3noc4cc(F)ccc34)C2)sc2ccc(F)cc12 [Compound 130, 5-Fluoro-N-[[1-[3-(6-fluoro-1,2-benzoxazol-3-yl)propyl]azetidin-3-yl]methyl]-3-methyl-benzothiophene-2-sulphonamide] was run?
**A.** The value was 6%.

**Q.** What about the “D2 antag [%]” value [2] of the same compound?
**A.** The value was 34%.

**Q.** And the “D3 ag [%]” value [6]?
**A.** The value was 5%.

**Q.** And the “D3 antag [%]” value [6]?
**A.** The value was 61%.

**Q.** What about the “5-HT2A ag [%]” value [3, 9] of the same compound?
**A.** Its value is 0%.

**Q.** What about the “5-HT6 ag [%]” value [4] of the same compound?
**A.** The value was 4%.

**Q.** What about the “5-HT7 ag [%]” value [5] of the same compound?
**A.** Its value is 0%.
